Test results reported in ChEMBL document CHEMBL1136464, “Array synthesis of novel lipodepsipeptide” (Bioorg Med Chem Lett, 2003).
Converted amounts (≈) assume the structure as drawn.

Key:
Type in all cases: functional
[1] = tested on: Staphylococcus aureus; experiment: Antibacterial activity against methicillin-resistant staphylococcus aureus ATCC 43300 at 10 % serum
[2] = tested on: Enterococcus faecalis; experiment: Antibacterial activity against Enterococcus faecalis ATCC 6569 at 10 % serum; conditions: ATCC 6569, Serum
[3] = tested on: Enterococcus faecium; experiment: Antibacterial activity against Enterococcus faecium ATCC 49452 at 10 % serum; conditions: ATCC 49452, Serum
[4] = tested on: Enterococcus faecium; experiment: Antibacterial activity against Enterococcus faecium ATCC 49452 at 0 % serum
[5] = tested on: Staphylococcus aureus; experiment: Antibacterial activity against methicillin susceptible staphylococcus aureus ATCC 29213 at 0 % serum
[6] = tested on: Staphylococcus aureus; experiment: Antibacterial activity against methicillin-resistant staphylococcus aureus ATCC 43300 at 0 % serum
[7] = tested on: Staphylococcus aureus; experiment: Antibacterial activity against methicillin susceptible staphylococcus aureus ATCC 29213 at 10 % serum
[8] = tested on: Enterococcus faecalis; experiment: Antibacterial activity against Enterococcus faecalis ATCC 6569 at 0 % serum

| Structure (SMILES) | MIC [1] [mg/L] | MIC [2] [mg/L] | MIC [3] [mg/L] | MIC [4] [mg/L] | MIC [5] [mg/L] | MIC [6] [mg/L] | MIC [7] [mg/L] | MIC [8] [mg/L] |
| --- | --- | --- | --- | --- | --- | --- | --- | --- |
| CCCCCCCCCC(=O)N[C@@H](Cc1c[nH]c2ccccc12)C(=O)N[C@H](CC(N)=O)C(=O)N[C@@H](CCO)C(=O)N[C@@H]1C(=O)NCC(=O)N[C@@H](CCCNCc2cccc([N+](=O)[O-])c2)C(=O)N[C@@H](CC(=O)O)C(=O)N[C@H](C)C(=O)N[C@@H](CC(=O)O)C(=O)NCC(=O)N[C@H](CO)C(=O)N[C@@H]([C@H](C)CC(=O)O)C(=O)N[C@@H](CC(=O)c2ccccc2N)C(=O)O[C@@H]1C | 1.56 (≈ 0.896 µM) | 12.5 (≈ 7.18 µM) | 12.5 (≈ 7.18 µM) | 6.25 (≈ 3.59 µM) | 0.78 (≈ 0.448 µM) | 0.78 (≈ 0.448 µM) | 1.56 (≈ 0.896 µM) | 6.25 (≈ 3.59 µM) |
| CCCCCCCCCC(=O)N[C@@H](Cc1c[nH]c2ccccc12)C(=O)N[C@H](CC(N)=O)C(=O)N[C@@H](CCO)C(=O)N[C@@H]1C(=O)NCC(=O)N[C@@H](CCCNCc2ccc(N3CCN(Cc4ccccc4)CC3)cc2)C(=O)N[C@@H](CC(=O)O)C(=O)N[C@H](C)C(=O)N[C@@H](CC(=O)O)C(=O)NCC(=O)N[C@H](CO)C(=O)N[C@@H]([C@H](C)CC(=O)O)C(=O)N[C@@H](CC(=O)c2ccccc2N)C(=O)O[C@@H]1C | 0.78 (≈ 0.417 µM) | 12.5 (≈ 6.68 µM) | 25 (≈ 13.4 µM) | 12.5 (≈ 6.68 µM) | 0.78 (≈ 0.417 µM) | 0.78 (≈ 0.417 µM) | 0.78 (≈ 0.417 µM) | 6.25 (≈ 3.34 µM) |
| CCCCCCCCCC(=O)N[C@@H](Cc1c[nH]c2ccccc12)C(=O)N[C@H](CC(N)=O)C(=O)N[C@@H](CCO)C(=O)N[C@@H]1C(=O)NCC(=O)N[C@@H](CCCNCc2ccc(C(=O)N3CCN(c4ccc(F)cc4)CC3)cc2)C(=O)N[C@@H](CC(=O)O)C(=O)N[C@H](C)C(=O)N[C@@H](CC(=O)O)C(=O)NCC(=O)N[C@H](CO)C(=O)N[C@@H]([C@H](C)CC(=O)O)C(=O)N[C@@H](CC(=O)c2ccccc2N)C(=O)O[C@@H]1C | 0.78 (≈ 0.41 µM) | 6.25 (≈ 3.28 µM) | 6.25 (≈ 3.28 µM) | 6.25 (≈ 3.28 µM) | 0.78 (≈ 0.41 µM) | 0.78 (≈ 0.41 µM) | 1.56 (≈ 0.82 µM) | 3.13 (≈ 1.64 µM) |
| CCCCCCCCCC(=O)N[C@@H](Cc1c[nH]c2ccccc12)C(=O)N[C@H](CC(N)=O)C(=O)N[C@@H](CCO)C(=O)N[C@@H]1C(=O)NCC(=O)N[C@@H](CCCNCc2ccc(OCc3ccccc3)cc2)C(=O)N[C@@H](CC(=O)O)C(=O)N[C@H](C)C(=O)N[C@@H](CC(=O)O)C(=O)NCC(=O)N[C@H](CO)C(=O)N[C@@H]([C@H](C)CC(=O)O)C(=O)N[C@@H](CC(=O)c2ccccc2N)C(=O)O[C@@H]1C | 6.25 (≈ 3.47 µM) | 12.5 (≈ 6.93 µM) | 25 (≈ 13.9 µM) | 3.13 (≈ 1.74 µM) | 0.78 (≈ 0.433 µM) | 0.78 (≈ 0.433 µM) | 6.25 (≈ 3.47 µM) | 1.56 (≈ 0.865 µM) |
| CCCCCCCCCC(=O)N[C@@H](Cc1c[nH]c2ccccc12)C(=O)N[C@H](CC(N)=O)C(=O)N[C@@H](CCO)C(=O)N[C@@H]1C(=O)NCC(=O)N[C@@H](CCCNCc2nccs2)C(=O)N[C@@H](CC(=O)O)C(=O)N[C@H](C)C(=O)N[C@@H](CC(=O)O)C(=O)NCC(=O)N[C@H](CO)C(=O)N[C@@H]([C@H](C)CC(=O)O)C(=O)N[C@@H](CC(=O)c2ccccc2N)C(=O)O[C@@H]1C | 0.78 (≈ 0.458 µM) | 12.5 (≈ 7.34 µM) | 6.25 (≈ 3.67 µM) | 6.24 (≈ 3.66 µM) | 0.78 (≈ 0.458 µM) | 0.78 (≈ 0.458 µM) | 1.56 (≈ 0.916 µM) | 6.25 (≈ 3.67 µM) |
| CCCCCCCCCC(=O)N[C@@H](Cc1c[nH]c2ccccc12)C(=O)N[C@H](CC(N)=O)C(=O)N[C@@H](CCO)C(=O)N[C@@H]1C(=O)NCC(=O)N[C@@H](CCCNCc2ccc(/C=C/C(=O)N3CCN(c4ccc(F)cc4)CC3)cc2)C(=O)N[C@@H](CC(=O)O)C(=O)N[C@H](C)C(=O)N[C@@H](CC(=O)O)C(=O)NCC(=O)N[C@H](CO)C(=O)N[C@@H]([C@H](C)CC(=O)O)C(=O)N[C@@H](CC(=O)c2ccccc2N)C(=O)O[C@@H]1C | 3.13 (≈ 1.62 µM) | 12.5 (≈ 6.48 µM) | 12.5 (≈ 6.48 µM) | 3.13 (≈ 1.62 µM) | 0.39 (≈ 0.202 µM) | 0.78 (≈ 0.404 µM) | 6.25 (≈ 3.24 µM) | 1.56 (≈ 0.809 µM) |
